Data reported in patent US20260294810A1, “IONIZABLE LIPID COMPOUND, LIPID CARRIER COMPRISING SAME, AND APPLICATION” (INNOVEC BIOTHERAPEUTICS, priority 2023, published 2026).

What was measured:
[1] = Determination of particle size and polydispersity index of lipid nanoparticles (Malvern particle size analyzer); format: physicochemical
Description: (§1) In this example, the total lipid phase concentration of 1 mg/mL was formulated in anhydrous ethanol at the molar ratio of ionizable lipid (Compound 1, Compound 11 or Compound 12):helper lipid (DSPC or DOPE):cholesterol:DMG-PEG2000=50%:10%:38.5%:1.5%. Luc-eGFP mRNA at the corresponding concentration was dissolved in 50 mM citric acid buffer with an aqueous buffer solution of pH4.0. The mass ratio of mRNA to the total lipids was 1:30.
(§2) LNPs were prepared using the formulation-screening chip from Micro & Nano at a total flow rate of 12 ml/min and a flow rate ratio of 1:3 between the lipid phase and the aqueous phase. The lipid nanoparticles were collected and dialyzed with PBS overnight at 4° C. to remove ethanol and acidic buffer salts. The dialysate volume was 400 times or more the sample volume. The dialyzed sample was filtered through a 0.2-μm filter membrane. Lipid nanoparticles could also be prepared by other methods, such as injection mixing, in addition to using microfluidic chips. After being dialyzed and filtered, the sample was concentrated using a 10 kDa cellulose ultrafiltration membrane. The centrifugation parameter was 1000 g to 2000 g, and the centrifugation time was 30 min to 1 hour. The centrifugation temperature was 4° C.
2. Determination of particle size: The particle size and polydispersity index (PDI) of the prepared lipid nanoparticles were measured using a Malvern particle size analyzer.
(§3) The nucleic acid delivery efficiency of lipid nanoparticles was characterized by observing the fluorescence expression in mice. The lipid nanoparticles were prepared at a molar ratio of ionizable lipid (Compound 17, Compound 15, Compound 18, Compound 2 or MC3):DSPC:cholesterol:DSPE-PEG2000=50%:10%:39.5%:0.5%. Female C57/BL6 mice weighing 18 to 22 g were selected. After acclimation, the Luc-eGFP mRNA-encapsulated lipid nanoparticles were injected subretinally into mice (both eyes) at a dose of 0.9 μg (±10%) mRNA (1 μl, in a sterile PBS solution) per eye. In order to observe the expression of luciferase, the luciferase substrate was dissolved into a sterile PBS solution and prepared into a solution at a concentration of 30 mg/ml.

[2] = system: luciferase; experiment: Subretinal injection in mice, chemiluminescence from Luc-eGFP mRNA delivered by lipid nanoparticles; format: in vivo, Female C57/BL6 mice; conditions: LNP ionizable lipid:DSPC:cholesterol:DSPE-PEG2000 = 50:10:39.5:0.5, both eyes, 0.9 μg (±10%) mRNA per eye
Description: as §3
(§4) Imaging in mice: 18 hours after drug administration, 150 μl of luciferase substrate solution was injected intraperitoneally into each mouse. The mice were allowed to stand for 5 min, and then anesthetized for 3 min in a carbon dioxide box. After anesthesia, the mice were put in a small animal in vivo imager for imaging.

[3] = system: Luc-eGFP mRNA; experiment: Determination of encapsulation efficiency of mRNAs (Quant-iT RiboGreen RNA kit); format: physicochemical
Description: as §1, §2
For mRNA-encapsulated lipid nanoparticles, the assay specified in the Quant-iT™ RiboGreen® RNA kit could be employed. The specific operations were as follows: The sample was diluted 10 to 20 folds with a TE buffer solution (10 mM Tris-HCl, 1 mM EDTA, pH 7.5). An equal volume of demulsifier (2% Triton X-100) was added to the sample to be tested and then the solution was diluted 10 to 20 folds again. The RiboGreen® reagent was diluted 100 folds in the TE buffer solution, and 100 μl of the diluted solution was added to a 96-well plate. 100 μl of the sample to be tested was added to the corresponding 96-well plate. Meanwhile, a standard curve was plotted using the mRNA standard. The fluorescence value at 520 nm excited by 480 nm excitation light was read using a microplate reader. The concentrations of the encapsulated and free mRNAs were calculated based on the standard curve.
as §3

[4] = system: luciferase; experiment: In vivo delivery of luciferase mRNA in animals, tail vein injection, chemiluminescence imaging; parameters: species or system Female C57/BL6 mice; conditions: Luc-eGFP mRNA 0.5 mg/kg, mice, 6 h after injection
Description: as §1
The nucleic acid delivery efficiency of lipid nanoparticles was characterized by observing the fluorescence expression in mice. The Luc-eGFP mRNA-encapsulated lipid nanoparticles prepared in Example 9 were injected at a certain dose into mice via the tail vein. Female C57/BL6 mice weighing 18 to 22 g were randomly grouped, with two mice in each group. After acclimation, Luc-eGFP mRNA-encapsulated LNPs (in a sterile PBS solution) were injected via the tail vein at a dose of 0.5 mg/kg (0.5 mg here referring to the dose of mRNA). In order to observe the expression of luciferase, the luciferase substrate was dissolved into a sterile PBS solution and prepared into a solution at a concentration of 30 mg/ml.
as §4, with “Six” for “Imaging in mice: 18”, “injection of LNPs,” for “drug administration,”, “ul” for “μl”

[5] = LNP ionizable lipid:DSPC:cholesterol:DSPE-PEG2000 = 50:10:39.5:0.5, Luc-eGFP mRNA
[6] = LNP with helper lipid DSPC, ionizable lipid:helper lipid:cholesterol:DMG-PEG2000 = 50:10:38.5:1.5, Luc-eGFP mRNA:total lipids 1:30
[7] = LNP with helper lipid DOPE, ionizable lipid:helper lipid:cholesterol:DMG-PEG2000 = 50:10:38.5:1.5, Luc-eGFP mRNA:total lipids 1:30

SMILES	PDI [1, 5]	Particle Size [1, 5] [nm]	Nucleic Acid Encapsulation Efficiency [3, 5] [%]	PDI [1, 6]	Particle Size [1, 6] [nm]	Nucleic Acid Encapsulation Efficiency [3, 6] [%]	PDI [1, 7]	Particle Size [1, 7] [nm]	Nucleic Acid Encapsulation Efficiency [3, 7] [%]	Luminous Intensity 18 h [2] [p/s/cm^2/sr]	Luminous Intensity 6 h ([4]; LNP with helper lipid DSPC) [p/s/cm^2/sr]	Luminous Intensity 6 h ([4]; LNP with helper lipid DOPE) [p/s/cm^2/sr]
CCCCCCCCC(C)C(=O)OCCCCCCN(CCCCCCOC(=O)C(CCCCCC)CCCCCCCC)CCOC(=O)NCCN(CC)CC (stereo not shown) [Compound 11]				0.215	96.88	97.13					7.2E+7	
CCCCCCCCC(CCCCCC)C(=O)OCCCCCCN(CCCCCCOC(=O)C(CCCCCC)CCCCCCCC)CCOC(=O)NCCN(C)CC (stereo not shown) [Compound 2]	0.19	147.2	99.3							2E+8		
CCCCC/C=C\C/C=C\CCCCCCCCC(CCCCCCCC/C=C\C/C=C\CCCCC)OC(=O)CCCN(C)C [MC3, DLin-MC3-DMA, reference compound]	0.24	149.0	96.6							5E+6	1.35E+8	

Further lines, with some results ahead:

PDI [1, 5]	Particle Size [1, 5] [nm]	Nucleic Acid Encapsulation Efficiency [3, 5] [%]	PDI [1, 6]	Particle Size [1, 6] [nm]	Nucleic Acid Encapsulation Efficiency [3, 6] [%]	PDI [1, 7]	Particle Size [1, 7] [nm]	Nucleic Acid Encapsulation Efficiency [3, 7] [%]	SMILES	Luminous Intensity 18 h [2] [p/s/cm^2/sr]	Luminous Intensity 6 h ([4]; LNP with helper lipid DSPC) [p/s/cm^2/sr]	Luminous Intensity 6 h ([4]; LNP with helper lipid DOPE) [p/s/cm^2/sr]
0.14	121.7	96.0							CCCCCCCCCOC(=O)CCCCCCCN(CCCCCCCC(=O)OC(CCCCCCCC)CCCCCCCC)CCOC(=O)NCCN(CC)CC [Compound 18]	1E+7		
0.36	90.31	99.4							CCCCCCCCCOC(=O)CCCCCCCN(CCCCCCCC(=O)OC(CCCCCCCC)CCCCCCCC)CCOC(=O)NCCCN(C)C [Compound 17]	3.4E+8		
0.22	149.7	98.2							CCCCCCCCCOC(=O)CCCCCCCN(CCCCCCCC(=O)OC(CCCCCCCC)CCCCCCCC)CCOC(=O)NCCN(C)CC [Compound 15]	2.6E+7		
			0.22	123	97.58				CCCCCCCCC(CCCC)C(=O)OCCCCCCN(CCCCCCOC(=O)C(CCCCCC)CCCCCCCC)CCOC(=O)NCCN(CC)CC (stereo not shown) [Compound 12]		3.1E+8	
			0.135	111.7	93.01	0.082	99.86	95.42	CCCCCCCCC(CCCCCC)C(=O)OCCCCCCN(CCCCCCOC(=O)C(CCCCCC)CCCCCCCC)CCOC(=O)NCCN(CC)CC (stereo not shown) [Compound 1]		3.4E+8	1.6E+9
